Assays:
Assay type in all cases: in vivo
[1] = system: SORVU (Sorghum bicolor (L.) Moench ssp. Bicolor, or Sorghum vulgare Pers.); test: Test 1B glasshouse assay for herbicidal activity, post-emergence; conditions: 360 h; for pest or weed control at 30 g/ha: 30 g/ha application rate; for pest or weed control at 60 g/ha: 60 g/ha application rate; for pest or weed control at 125 g/ha: 125 g/ha application rate
Protocol: (§1) Seeds of a variety of monocotyledonous and dicotyledonous test plants are sown in standard soil in pots. The plants are cultivated for one day (for pre-emergence) or for about 12 days (range=10-13 days) (for post-emergence) under controlled conditions in a glasshouse (warm climate species at 24/18° C., cool climate species at 20/16° C., both at day/night; 16 hours light; 65% humidity).
(§2) An “instant formulation”, known as the “IF50”, containing 50 g/liter (i.e. 5% w/v) of the “technical” (i.e. unformulated) active ingredient is prepared by dissolving the active ingredient in a mixture of organic solvents and emulsifier, details of which are provided in the Table below. This IF50 is then mixed with a small, variable amount of acetone to aid dissolution, before addition of a 0.2% v/v aqueous solution of the adjuvant X-77 (which is a mixture of alkyl aryl polyoxyethylene glycols and free fatty acids in isopropanol, CAS Registry number 11097-66-8), as the aqueous diluent, to form an aqueous spray solution which contains a predetermined concentration of the active ingredient (which varies depending on the application rate of the active ingredient to the plants) and 0.2% v/v of the adjuvant X-77. This aqueous spray solution is then sprayed onto the plants, after one day's cultivation (for pre-emergence) or after about 12 days' cultivation (for post-emergence).
(§3) The test plants are then grown on, in a glasshouse (greenhouse) under controlled conditions (at either 24/18° C. or 20/16° C. (day/night) as mentioned above; 16 hours light; 65% humidity) and are watered twice daily. Either 15 days after application of the herbicide (15 DAA) (for post-emergence), or 20 days after application of the herbicide (20 DAA) (for pre-emergence), the test plants are evaluated visually, and an assessed percentage phytotoxicity score is given for each herbicidal application on each plant species (where 100%=total damage to plant; 0%=no damage to plant).
(§4) Warm climate (“warm season”) grassy monocotyledonous weeds: Setaria faberi (SETFA), SORVU (Sorghum bicolor (L.) Moench ssp. Bicolor, or Sorghum vulgare Pers.), Digitaria sanguinalis (DIGSA), Echinochloa crus-galli (ECHCG), and Brachiaria plantaginea (BRAPL).

[2] = system: Digitaria sanguinalis (DIGSA); test: as above; conditions: 360 h; for pest or weed control at 30 g/ha: 30 g/ha application rate; for pest or weed control at 60 g/ha: 60 g/ha application rate; for pest or weed control at 125 g/ha: 125 g/ha application rate
Protocol: as §1, §2, §3, §4

[3] = system: Setaria faberi (SETFA); test: as above; conditions: 360 h; for pest or weed control at 30 g/ha: 30 g/ha application rate; for pest or weed control at 60 g/ha: 60 g/ha application rate; for pest or weed control at 125 g/ha: 125 g/ha application rate
Protocol: as §1, §2, §3, §4

[4] = system: SORVU (Sorghum bicolor (L.) Moench ssp. Bicolor, or Sorghum vulgare Pers.); test: Test 1B glasshouse assay for herbicidal activity, pre-emergence; conditions: 480 h, 20 DAA, read-out: percentage phytotoxicity SORVU
Protocol: as §1, §2, §3, §4

[5] = system: Echinochloa crus-galli (ECHCG); test: as above; conditions: 480 h, 20 DAA, read-out: percentage phytotoxicity ECHCG
Protocol: as §1, §2, §3, §4

[6] = system: Setaria faberi (SETFA); test: as above; conditions: 480 h, 20 DAA, read-out: percentage phytotoxicity SETFA
Protocol: as §1, §2, §3, §4

[7] = system: Triticum aestivum (TRZAW, winter wheat); test: as above; conditions: 480 h, 20 DAA, read-out: percentage phytotoxicity TRZAW
Protocol: as §1, §2, §3
(§5) Cool climate crop plants: Triticum aestivum (TRZAW, winter wheat), Brassica napus (BRSNN, rape, also called oilseed rape or rapeseed), Beta vulgaris (BEAVA, sugar beet).

[8] = system: Brassica napus (BRSNN, rape); test: as above; conditions: 480 h, 20 DAA, read-out: percentage phytotoxicity BRSNN
Protocol: as §1, §2, §3, §5

[9] = system: Beta vulgaris (BEAVA, sugar beet); test: as above; conditions: 480 h, 20 DAA, read-out: percentage phytotoxicity BEAVA
Protocol: as §1, §2, §3, §5

[10] = system: Alopecurus myosuroides (ALOMY); test: Test 1A glasshouse assay for herbicidal activity, post-emergence; conditions: 312 h, evaluated after 13 days, read-out: percentage phytotoxicity ALOMY
In short: (§6)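 Damage is rated by eye as percent phytotoxicity on a 0–100 scale, 13 days after treatment. Compound is sprayed in acetone/water (50:50) with 0.5% Tween 20 onto pots one day (pre-emergence) or eight days (post-emergence) after sowing, with plants kept at 24/16 °C and 14 h light.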

[11] = system: Echinochloa crus-galli (ECHCG); test: as above; conditions: 312 h, evaluated after 13 days, read-out: percentage phytotoxicity ECHCG
In short: as §6

[12] = system: Amaranthus retroflexus (AMARE); test: as above; conditions: 312 h, evaluated after 13 days, read-out: percentage phytotoxicity AMARE
In short: as §6

[13] = system: Setaria faberi (SETFA); test: as above; conditions: 312 h, evaluated after 13 days, read-out: percentage phytotoxicity SETFA
In short: as §6

[14] = system: Glycine max (GLXMA, soybean); test: Test 1B glasshouse assay for herbicidal activity, post-emergence; conditions: 360 h; for plant injury at 30 g/ha: 30 g/ha application rate; for plant injury at 60 g/ha: 60 g/ha application rate; for plant injury at 125 g/ha: 125 g/ha application rate
Protocol: as §1, §2, §3
Warm climate crop plants: Glycine max (GLXMA, soybean).

[15] = system: Alopecurus myosuroides (ALOMY); test: Test 1A glasshouse assay for herbicidal activity, pre-emergence; conditions: 312 h, 250 g/ha, evaluated after 13 days, read-out: percentage phytotoxicity ALOMY
In short: as §6

[16] = system: Echinochloa crus-galli (ECHCG); test: as above; conditions: 312 h, 250 g/ha, evaluated after 13 days, read-out: percentage phytotoxicity ECHCG
In short: as §6

[17] = system: Amaranthus retroflexus (AMARE); test: as above; conditions: 312 h, 250 g/ha, evaluated after 13 days, read-out: percentage phytotoxicity AMARE
In short: as §6

[18] = system: Setaria faberi (SETFA); test: as above; conditions: 312 h, 250 g/ha, evaluated after 13 days, read-out: percentage phytotoxicity SETFA
In short: as §6

Row | SMILES | pest or weed control at 30 g/ha [1] [%] | pest or weed control at 60 g/ha [1] [%] | pest or weed control at 125 g/ha [1] [%] | pest or weed control at 30 g/ha [2] [%] | pest or weed control at 30 g/ha [3] [%] | pest or weed control at 250 g/ha [10] [%] | pest or weed control at 250 g/ha [11] [%] | pest or weed control at 250 g/ha [12] [%] | pest or weed control at 250 g/ha [13] [%] | plant injury at 30 g/ha [14] [%] | pest or weed control at 250 g/ha [15] [%] | pest or weed control at 250 g/ha [16] [%] | pest or weed control at 250 g/ha [17] [%] | pest or weed control at 250 g/ha [18] [%] | pest or weed control at 125 g/ha [4] [%] | pest or weed control at 125 g/ha [5] [%] | pest or weed control at 125 g/ha [6] [%] | plant injury at 125 g/ha [7] [%] | plant injury at 125 g/ha [8] [%] | plant injury at 125 g/ha [9] [%] | also measured
1 | CC#Cc1cc(C)c(C2C(=O)C3CCC(C3)C2=O)c(C)c1 (stereo not shown) [Compound A-5] | 70 | 80 | 100 | 90 | 80 | 100 | 100 | 0 | 100 | 10 | 100 | 100 | 0 | 90 |  |  |  |  |  |  | pest or weed control at 500 g/ha ([1]; 500 g/ha application rate): 100%; pest or weed control at 60 g/ha [2]: 100%; pest or weed control at 125 g/ha [2]: 100%; pest or weed control at 500 g/ha ([2]; 500 g/ha application rate): 100%; pest or weed control at 60 g/ha [3]: 90%; pest or weed control at 125 g/ha [3]: 100%; pest or weed control at 500 g/ha ([3]; 500 g/ha application rate): 100%; pest or weed control at 500 g/ha ([4]; 500 g/ha): 90%; pest or weed control at 500 g/ha ([5]; 500 g/ha): 100%; pest or weed control at 500 g/ha ([6]; 500 g/ha): 90%; plant injury at 500 g/ha ([7]; 500 g/ha): 20%; plant injury at 500 g/ha ([8]; 500 g/ha): 90%; plant injury at 500 g/ha ([9]; 500 g/ha): 0%; pest or weed control at 30 g/ha ([10]; 30 g/ha): 80%; pest or weed control at 30 g/ha ([11]; 30 g/ha): 100%; pest or weed control at 30 g/ha ([12]; 30 g/ha): 10%; pest or weed control at 30 g/ha ([13]; 30 g/ha): 70%; plant injury at 60 g/ha [14]: 20%; plant injury at 125 g/ha [14]: 30%; plant injury at 500 g/ha ([14]; 500 g/ha application rate): 40%
2 | Cc1cc(C#CCl)cc(C)c1C1C(=O)C2CCC(C2)C1=O (stereo not shown) [Compound A-6] | 90 | 90 |  | 100 | 100 | 70 | 100 | 0 | 90 | 0 | 100 | 100 | 30 | 100 | 80 | 60 | 80 | 10 | 70 | 0 | pest or weed control at 60 g/ha [2]: 100%; pest or weed control at 60 g/ha [3]: 100%; pest or weed control at 62.5 g/ha ([10]; 62.5 g/ha): 70%; pest or weed control at 62.5 g/ha ([11]; 62.5 g/ha): 100%; pest or weed control at 62.5 g/ha ([12]; 62.5 g/ha): 10%; pest or weed control at 62.5 g/ha ([13]; 62.5 g/ha): 90%; plant injury at 60 g/ha [14]: 0%
3 | CC#Cc1cc(C)c(C2C(=O)CC(CC3CCOCC3)CC2=O)c(C)c1 (stereo not shown) [Compound A-9] | 80 |  |  | 100 | 90 | 100 | 100 | 30 | 90 | 60 | 100 | 100 | 100 | 100 | 90 | 90 | 100 | 20 | 80 | 20 | 
4 | CC#Cc1cc(C)c(C2C(=O)C3CCC(C3)C2=O)c(OC)c1 (stereo not shown) [Compound A-10] | 100 |  | 100 | 90 | 80 | 100 | 100 | 50 | 100 | 10 | 100 | 100 | 0 | 100 | 80 | 90 | 80 | 20 | 0 | 0 | pest or weed control at 125 g/ha [2]: 100%; pest or weed control at 125 g/ha [3]: 100%; plant injury at 125 g/ha [14]: 20%
